Reference: patent US12497371B2, “DRP-1 inhibitors as therapeutic agents” (The Florida International University Board of Trustees, priority 2023, dated 2025)

What was measured:
[1] = system: eNAMPT-mediated mitochondrial fission; test: eNAMPT-mediated mitochondrial fission; format: cell-based; details: FIG. 5A
Protocol: (§1) FIGS. 5A-5C show the validation of novel Drp1 inhibitors as therapeutics against VILI. Three novel Drp1 inhibitors identified in the Drp1 GTPase assay were tested for their ability to attenuate eNAMPT-mediated mitochondrial fission (5A). One of the compounds CTS2444-32 was further tested in mice exposed to high tidal mechanical ventilation (40 mL/kg, PEEP=5 cm H2O, BR=75 bpm, 4 h). […] Values are mean±SEM, n=4. *P<0.05 vs. spontaneously breathing control, †P<0.05 vs. DMSO+VILI.
Three lead compounds (FIG. 4) were selected for further testing. These compounds are referred to as CTS (Center for Translational Science) 2444-19, CTS2444-20, and CTS2444-32. These compounds were examined for their ability to prevent eNAMPT-mediated mitochondrial fission.

[2] = system: ventilator-induced lung injury (VILI); test: VILI model: mice exposed to high tidal mechanical ventilation; format: in vivo; details: 10 mg/kg, i.p., 2 h
Protocol: as §1
CTS2444-32 (10 mg/kg, i.p., 2 h) attenuated the VILI-mediated increase in the levels of TNFα (6A), IL-6 (6B), IL-18 (6C), GROα, (6D), MIP-1α (6E), MIP-1β(6F), MCP-1 (6G), MCP-3 (6H), and IL-12p70 (6I) in the BALF. Values are mean±SEM, n=4. *P<0.05 vs. spontaneously beathing control, †P<0.05 vs. DMSO+VILI.
To validate Drp1 as a therapeutic target, four preclinical VILI/ARDS models are used: i) VILI; ii) a “two-hit” model of polymicrobial sepsis (cecal ligation and puncture, CLP) in addition to mechanical ventilation; iii) a “two-hit” COV19-pneumonia model consisting of the delivery of the COVID19 spike protein combined with mechanical ventilation and iv) the ARDS-like extended lung inflammation model in which the mice are exposed long-term to LPS. Therapeutic agents are given before the initiation of injury in the VILI-only model or at the beginning of mechanical ventilation in the “two-hit” models, or 4 d after LPS exposure in the extended lung inflammation model to mimic the situation of a critically ill patient in the ICU.

mouse primary microglia = test: Paraquat-treated primary microglia, qPCR of inflammatory mRNA; format: cell-based; details: 6 h
Protocol: Microglia cells were treated with paraquat (PQ) in the presence or absence of compound 2444-32. The mRNA levels of IL-1β and RelA were analyzed. Microglia isolated from Drp1+/− pups was used as a positive control.
Neuroinflammation is commonly observed in Parkinson's disease (PD) and other neurodegenerative diseases. The role of activated microglia in causing neuroinflammation by upregulating the levels of pro-inflammatory cytokines such as IL-1β and relA is implicated in PD. The protective effects of one lead compound (2444-32) was evaluated using mouse primary microglia isolated from newborn pups. As shown in the FIG. 7, these cells were treated for with paraquat (PQ), a herbicide that has been linked to increasing the risk of developing PD, in the presence or absence of compound 2444-32. After 6 h, RNA was isolated for qPCR analysis. There was a dramatic increase in the levels of IL-1β and RelA mRNA. […] As a positive control model for a partial loss of Drp1 function, microglia isolated from Drp1+/− pups was used, which express approximately 50% of Drp1 as compared to their wild-type littermates. Significant reduction in neuroinflammation was also detected in these mutant microglia treated with PQ, indicating the protective effects of 2444-32 was most likely mediated through reduced Drp1 function, not off-target effects.

LUHMES cells = test: α-synuclein PFF aggregation in LUHMES cells (pS129 immunostaining); format: cell-based, human; details: PFF 24 h, then 20 μM compound for 48 h
Protocol: To determine the therapeutic potential of compound 2444-32 against α-synuclein, human dopaminergic neuronal cells (LUHMES cells) were treated with human α-synuclein pre-formed fibrils (PFF). After 24 h incubation, cell culture media containing PFF was removed and replaced with fresh media containing 20 μM of compound 2444-32 or vehicle control. Cells were incubated for a further 48 h before having media removed and processed for immunostaining for pS129 α-synuclein, a pathogenic form of α-synuclein. α-synuclein protein aggregates were then quantified using the IMARIS (Oxford instruments) software.

cell proliferation = details: background statement; cited from earlier work
lung cancer tumor = details: xenograft mouse model; background statement; cited from earlier work
[3] = system: cardiac ischemia-reperfusion injury; details: background statement; cited from earlier work
dynamin 1 = target: T1, dynamin 1 (Homo sapiens, UniProt Q05193); details: background statement; cited from earlier work
T1 sequence (Q05193 1-864): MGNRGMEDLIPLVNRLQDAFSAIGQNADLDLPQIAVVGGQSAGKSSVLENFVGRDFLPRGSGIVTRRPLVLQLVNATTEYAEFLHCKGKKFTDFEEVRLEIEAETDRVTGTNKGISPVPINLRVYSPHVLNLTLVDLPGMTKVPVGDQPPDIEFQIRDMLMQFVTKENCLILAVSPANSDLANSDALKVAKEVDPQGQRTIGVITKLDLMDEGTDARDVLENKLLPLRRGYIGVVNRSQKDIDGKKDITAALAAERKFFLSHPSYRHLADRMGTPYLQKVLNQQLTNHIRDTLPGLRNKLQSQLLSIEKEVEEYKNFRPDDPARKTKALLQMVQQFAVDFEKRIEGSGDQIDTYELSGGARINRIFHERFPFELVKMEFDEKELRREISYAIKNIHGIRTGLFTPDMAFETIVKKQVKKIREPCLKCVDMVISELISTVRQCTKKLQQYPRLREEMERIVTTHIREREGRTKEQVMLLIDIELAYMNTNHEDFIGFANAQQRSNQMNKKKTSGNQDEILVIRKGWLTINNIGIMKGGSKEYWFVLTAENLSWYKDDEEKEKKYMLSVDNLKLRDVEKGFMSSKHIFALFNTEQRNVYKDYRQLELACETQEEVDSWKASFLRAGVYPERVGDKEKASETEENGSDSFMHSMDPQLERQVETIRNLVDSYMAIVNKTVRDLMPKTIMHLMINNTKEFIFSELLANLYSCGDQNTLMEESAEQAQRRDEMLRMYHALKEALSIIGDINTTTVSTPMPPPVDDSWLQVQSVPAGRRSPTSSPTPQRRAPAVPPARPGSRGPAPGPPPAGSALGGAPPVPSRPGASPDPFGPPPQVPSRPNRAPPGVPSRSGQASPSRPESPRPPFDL

dynamin 2 = target: T2, dynamin 2 (Homo sapiens, UniProt P50570); details: background statement; cited from earlier work
T2 sequence (P50570 1-870): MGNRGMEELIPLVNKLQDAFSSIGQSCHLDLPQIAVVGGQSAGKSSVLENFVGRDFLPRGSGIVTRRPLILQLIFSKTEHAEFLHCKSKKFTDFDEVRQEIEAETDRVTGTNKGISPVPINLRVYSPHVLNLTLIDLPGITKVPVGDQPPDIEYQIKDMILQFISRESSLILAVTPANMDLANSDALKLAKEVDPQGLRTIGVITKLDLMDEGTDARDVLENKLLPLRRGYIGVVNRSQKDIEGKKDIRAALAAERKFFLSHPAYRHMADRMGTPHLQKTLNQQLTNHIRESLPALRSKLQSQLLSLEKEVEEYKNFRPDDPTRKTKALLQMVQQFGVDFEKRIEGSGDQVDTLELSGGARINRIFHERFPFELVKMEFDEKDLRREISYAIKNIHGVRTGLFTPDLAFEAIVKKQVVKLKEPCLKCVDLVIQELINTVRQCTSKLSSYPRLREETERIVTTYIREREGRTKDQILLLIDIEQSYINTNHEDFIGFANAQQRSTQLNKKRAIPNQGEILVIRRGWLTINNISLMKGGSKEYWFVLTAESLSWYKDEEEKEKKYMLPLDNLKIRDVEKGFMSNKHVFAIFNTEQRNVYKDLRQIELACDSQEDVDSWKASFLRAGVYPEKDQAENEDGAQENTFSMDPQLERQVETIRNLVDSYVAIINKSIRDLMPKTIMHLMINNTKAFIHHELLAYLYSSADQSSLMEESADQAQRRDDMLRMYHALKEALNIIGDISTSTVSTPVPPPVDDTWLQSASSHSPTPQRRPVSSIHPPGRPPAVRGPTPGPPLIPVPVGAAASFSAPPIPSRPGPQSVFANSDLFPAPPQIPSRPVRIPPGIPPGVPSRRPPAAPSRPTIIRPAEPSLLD

lung EC = test: LPS (TLR4)-dependent mitochondrial fission in lung EC; format: cell-based; details: LPS 2 EU/ml, 4 h; FIG. 1C
Protocol: TLR^4 ligation with LPS (2 EU/ml, 4 h) also increases mitochondrial fission and this is blocked by the putative Drp1 inhibitor, mdivi-1 (1C). Data are mean±SEM. N=3-10. P<0.05 vs. control.
Using immunofluorescence microscopy, increased mitochondrial localization of Drp1 was observed (FIG. 1B).

Drp1 GTPase = details: background statement; cited from earlier work
complex I = details: background statement; cited from earlier work

## O=C(Cc1ccc(Cl)c(Cl)c1)N1CCN(Cc2csc(NCC3(c4ccccc4)CC3)n2)CC1 [Compound 2444-19]
[1]
  increase in fission induced by eNAMPT: not

## CCCCNc1nc(CN2CCN(C(=O)CC3CC4CCC3C4)CC2)cs1 (centres unmarked) [Compound 2444-20]
[1]
  increase in fission induced by eNAMPT: prevent the increase in fission induced by eNAMPT

## O=C(CC1CC2CCC1C2)N1CCN(Cc2csc(NCC3CCC3)n2)CC1 (centres unmarked) [Compound 2444-32]
[1]
  increase in fission induced by eNAMPT: prevent the increase in fission induced by eNAMPT
[2]; FIG. 6A
  VILI-mediated increase in TNFα in BALF: attenuated
[2]; FIG. 6B
  VILI-mediated increase in IL-6 in BALF: attenuated
[2]; FIG. 6C
  VILI-mediated increase in IL-18 in BALF: attenuated
[2]; FIG. 6D
  VILI-mediated increase in GROα in BALF: attenuated
[2]; FIG. 6E
  VILI-mediated increase in MIP-1α in BALF: attenuated
[2]; FIG. 6F
  VILI-mediated increase in MIP-1β in BALF: attenuated
[2]; FIG. 6G
  VILI-mediated increase in MCP-1 in BALF: attenuated
[2]; FIG. 6H
  VILI-mediated increase in MCP-3 in BALF: attenuated
[2]; FIG. 6I
  VILI-mediated increase in IL-12p70 in BALF: attenuated
[2]; high tidal ventilation 40 mL/kg, 4 h, FIG. 5B
  total cell counts in bronchoalveolar lavage (BAL) fluid: decreases
[2]; high tidal ventilation 40 mL/kg, 4 h, FIG. 5C
  protein in bronchoalveolar lavage (BAL) fluid: decreases
[2]; mice exposed to VILI
  lung injury: decreases lung injury
Mouse primary microglia
  paraquat-induced increase in IL-1β mRNA: significantly attenuated
  paraquat-induced increase in RelA mRNA: significantly attenuated
LUHMES cells
  α-synuclein aggregation (puncta): significantly reduced

## O=C1c2ccncc2C(=O)c2c1[nH]c1ccccc21 [Drpitor1a]
Cell proliferation
  cell proliferation: reduce cell proliferation
Lung cancer tumor
  lung cancer tumor growth: suppress lung cancer tumor growth
[3]
  protection against cardiac ischemia-reperfusion injury: protect against cardiac ischemia-reperfusion injury

## O=C(N/N=C/c1ccc(O)c(O)c1)c1cc2ccccc2cc1O [Dynasore]
Dynamin 1
  inhibition of dynamin 1: blocks
Dynamin 2
  inhibition of dynamin 2: blocks

## COc1cc(-n2c(=S)[nH]c3ccccc3c2=O)c(Cl)cc1Cl [mdivi-1]
Lung EC
  TLR4-dependent mitochondrial fission: decreases TLR4-dependent mitochondrial fission
Drp1 GTPase
  inhibition of Drp1 GTPase activity: weak and non-specific inhibitor
Complex I
  inhibition of complex I: reversible inhibitor
